The source of these data is patent US12391664B2, “GluN2C/D subunit selective antagonists of the N-methyl-D-aspartate receptor” (Emory University, priority 2018, dated 2025).

Like-named read-outs stand apart in the source and are kept apart here.

A word on the IC50: it is the concentration needed to halve the response being measured.

Format in all cases: cell-based
The target in assay [1] is T1, recombinant rat GluN1/GluN2A (Rattus norvegicus, UniProt Q00959).
T1 construct: expressed in transfected cells; host or cells: Xenopus laevis oocytes injected with cRNA (GluN1:GluN2 ratio 1:2)
The assay can be described thus: Two-electrode voltage-clamp recordings in Xenopus laevis oocytes, GluN2A. To be noted: oocytes, 100 μM glutamate and 30 μM glycine. The protocol: (§1) All target compounds were evaluated for activity by the Traynelis laboratory at Emory University using two-electrode voltage-clamp recordings performed in Xenopus laevis oocytes expressing recombinant GluN2A-D subunits (Table 1). […] Two ester compounds 997-65 and 997-66 also performed no inhibition at GluN2A to GluN2D receptors. […] Consequently, for the compounds that Acker et al. already published, it was necessary to increase the concentration to 100 μM when collecting data for a concentration effect curve. […] Therefore, under this condition, we can only conclude that compound 997-67 remained potent at GluN2C/D-containing receptors, but its selectivity over GluN2A- and GluN2B-containing receptors could not be compared to 997-57. […] Finally, replacing the carboxylic acid to the bio-isostere amide yielded compounds 997-96 and 997-115, which dropped the potency 2- to 4-fold in comparison to their corresponding acids 997-74 and 997-114.
(§2) Two-electrode voltage-clamp recordings were performed in Xenopus laevis oocytes that were injected with mRNA to express recombinant rat GluN1/GluN2A, GluN1/GluN2B, GluN1/GluN2C, and GluN1/GluN2D. The recordings using unfertilized oocytes from Xenopus laevis were permitted by Emory University Institutional Animal Care and Use Committee (IACUC). An automatic injector (Nanoject II, Drummond Scientific) was used for cRNA injection using the pipettes filled with mineral oil. The cRNA that transcribed in vitro via the mMessage Machine kit (Ambion) was diluted with nuclease-free water, and then injected at GluN1/GluN2 with a ratio of 1:2. The oocytes were stored in Barth's solution that contained 88 mM NaCl, 5.0 mM Tris-HCl, 2.4 mM NaHCO3, 1.0 mM KCl, 0.84 mM MgSO4, 0.41 mM CaCl2, 0.33 mM Ca(NO3)2, 0.1 mg/ml gentamycin sulfate, 1.0 U/ml penicillin, and 1 μg/ml streptomycin at a pH of 7.4 and temperatures of 15-17° C. for two to five days before the two-electrode voltage-clamp recordings. When recording, the oocytes were placed in a perfusion chamber and continually washed with the recording solution comprised of 90 mM NaCl, 1.0 mM KCl, 0.50 mM BaCl2, 0.005 mM EDTA, and 10 mM HEPES at a pH of 7.4 and a temperature of 23° C. Glass electrodes with a tip resistance of 0.5 to 2.5 MΩ were obtained from thin-walled glass capillary tubes. Voltage electrodes and current electrodes were filled with 0.3 M and 3.0 M KCl, respectively. The recordings were executed with the oocytes membrane potential holding at −40 m V by an OC-725 amplifier (Warner Instrument Co). All compounds were dissolved in dimethyl sulfoxide (DMSO) as 20 mM stock solutions and future diluted to reach the desired concentration (0.05-0.5% (vol/vol) DMSO) in recording solution comprised of 30 μM glycine and 100 μM glutamate. Each compound was recorded 3-7 times in the least 4 oocytes from at least 2 different Xenopus laevis.
(§3) To evaluate the inhibition of compounds, the concentration-response curve was fitted with the average two-electrode voltage-clamp recording results with the equation
(§4) [formula] • where IC50 is the concentration of compounds that inhibit half maximal of the current response and N is the Hill slope.
(Two-electrode voltage clamp holds a large cell at a set potential and records current.)

The target in assay [2] is T2, recombinant rat GluN1/GluN2D (Rattus norvegicus, UniProt P35439+Q62645).
T2 construct: expressed in transfected cells; host or cells: Xenopus laevis oocytes injected with cRNA (GluN1:GluN2 ratio 1:2)
T2 sequence (Q62645 28-1323, other chains not shown): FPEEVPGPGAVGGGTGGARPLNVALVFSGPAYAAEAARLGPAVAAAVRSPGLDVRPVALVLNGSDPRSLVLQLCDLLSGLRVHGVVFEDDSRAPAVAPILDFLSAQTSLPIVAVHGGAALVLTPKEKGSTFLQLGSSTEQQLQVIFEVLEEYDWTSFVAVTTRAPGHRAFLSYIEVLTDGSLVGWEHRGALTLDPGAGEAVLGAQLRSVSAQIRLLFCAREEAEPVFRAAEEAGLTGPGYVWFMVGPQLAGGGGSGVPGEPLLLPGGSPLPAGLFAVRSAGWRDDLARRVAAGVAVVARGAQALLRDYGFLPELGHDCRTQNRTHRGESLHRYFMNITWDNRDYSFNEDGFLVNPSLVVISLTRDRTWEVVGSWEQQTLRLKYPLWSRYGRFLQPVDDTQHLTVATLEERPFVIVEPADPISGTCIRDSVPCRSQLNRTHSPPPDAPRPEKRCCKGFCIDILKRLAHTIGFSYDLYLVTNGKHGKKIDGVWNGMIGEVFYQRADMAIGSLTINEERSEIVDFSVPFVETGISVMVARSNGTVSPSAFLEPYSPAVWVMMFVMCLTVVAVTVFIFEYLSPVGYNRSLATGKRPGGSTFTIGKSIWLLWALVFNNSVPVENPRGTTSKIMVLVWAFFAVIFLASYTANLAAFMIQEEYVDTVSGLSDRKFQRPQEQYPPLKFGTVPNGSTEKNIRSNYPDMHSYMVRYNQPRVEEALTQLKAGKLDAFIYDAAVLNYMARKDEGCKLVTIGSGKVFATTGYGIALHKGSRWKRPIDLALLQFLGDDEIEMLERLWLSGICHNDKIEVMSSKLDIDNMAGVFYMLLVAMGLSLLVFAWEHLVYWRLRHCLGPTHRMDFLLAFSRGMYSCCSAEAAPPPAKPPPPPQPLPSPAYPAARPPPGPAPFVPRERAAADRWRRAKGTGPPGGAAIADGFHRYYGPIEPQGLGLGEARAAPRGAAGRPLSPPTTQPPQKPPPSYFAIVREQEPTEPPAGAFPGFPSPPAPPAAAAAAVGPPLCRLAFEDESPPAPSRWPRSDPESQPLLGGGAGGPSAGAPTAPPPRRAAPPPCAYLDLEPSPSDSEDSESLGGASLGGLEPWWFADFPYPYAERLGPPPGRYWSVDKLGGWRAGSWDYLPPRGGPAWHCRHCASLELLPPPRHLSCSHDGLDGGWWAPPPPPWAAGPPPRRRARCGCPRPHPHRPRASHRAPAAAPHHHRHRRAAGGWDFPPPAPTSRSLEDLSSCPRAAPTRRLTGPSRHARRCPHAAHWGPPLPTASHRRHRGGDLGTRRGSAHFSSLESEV
The assay can be described thus: Two-electrode voltage-clamp recordings in Xenopus laevis oocytes, GluN2D. The method, then: as §1, §2, §3, §4

In assay [3] the target is T3, recombinant rat GluN1/GluN2B (Rattus norvegicus, UniProt Q00960).
T3 construct: expressed in transfected cells; host or cells: Xenopus laevis oocytes injected with cRNA (GluN1:GluN2 ratio 1:2)
T3 sequence (Q00960 27-1482, other chains not shown): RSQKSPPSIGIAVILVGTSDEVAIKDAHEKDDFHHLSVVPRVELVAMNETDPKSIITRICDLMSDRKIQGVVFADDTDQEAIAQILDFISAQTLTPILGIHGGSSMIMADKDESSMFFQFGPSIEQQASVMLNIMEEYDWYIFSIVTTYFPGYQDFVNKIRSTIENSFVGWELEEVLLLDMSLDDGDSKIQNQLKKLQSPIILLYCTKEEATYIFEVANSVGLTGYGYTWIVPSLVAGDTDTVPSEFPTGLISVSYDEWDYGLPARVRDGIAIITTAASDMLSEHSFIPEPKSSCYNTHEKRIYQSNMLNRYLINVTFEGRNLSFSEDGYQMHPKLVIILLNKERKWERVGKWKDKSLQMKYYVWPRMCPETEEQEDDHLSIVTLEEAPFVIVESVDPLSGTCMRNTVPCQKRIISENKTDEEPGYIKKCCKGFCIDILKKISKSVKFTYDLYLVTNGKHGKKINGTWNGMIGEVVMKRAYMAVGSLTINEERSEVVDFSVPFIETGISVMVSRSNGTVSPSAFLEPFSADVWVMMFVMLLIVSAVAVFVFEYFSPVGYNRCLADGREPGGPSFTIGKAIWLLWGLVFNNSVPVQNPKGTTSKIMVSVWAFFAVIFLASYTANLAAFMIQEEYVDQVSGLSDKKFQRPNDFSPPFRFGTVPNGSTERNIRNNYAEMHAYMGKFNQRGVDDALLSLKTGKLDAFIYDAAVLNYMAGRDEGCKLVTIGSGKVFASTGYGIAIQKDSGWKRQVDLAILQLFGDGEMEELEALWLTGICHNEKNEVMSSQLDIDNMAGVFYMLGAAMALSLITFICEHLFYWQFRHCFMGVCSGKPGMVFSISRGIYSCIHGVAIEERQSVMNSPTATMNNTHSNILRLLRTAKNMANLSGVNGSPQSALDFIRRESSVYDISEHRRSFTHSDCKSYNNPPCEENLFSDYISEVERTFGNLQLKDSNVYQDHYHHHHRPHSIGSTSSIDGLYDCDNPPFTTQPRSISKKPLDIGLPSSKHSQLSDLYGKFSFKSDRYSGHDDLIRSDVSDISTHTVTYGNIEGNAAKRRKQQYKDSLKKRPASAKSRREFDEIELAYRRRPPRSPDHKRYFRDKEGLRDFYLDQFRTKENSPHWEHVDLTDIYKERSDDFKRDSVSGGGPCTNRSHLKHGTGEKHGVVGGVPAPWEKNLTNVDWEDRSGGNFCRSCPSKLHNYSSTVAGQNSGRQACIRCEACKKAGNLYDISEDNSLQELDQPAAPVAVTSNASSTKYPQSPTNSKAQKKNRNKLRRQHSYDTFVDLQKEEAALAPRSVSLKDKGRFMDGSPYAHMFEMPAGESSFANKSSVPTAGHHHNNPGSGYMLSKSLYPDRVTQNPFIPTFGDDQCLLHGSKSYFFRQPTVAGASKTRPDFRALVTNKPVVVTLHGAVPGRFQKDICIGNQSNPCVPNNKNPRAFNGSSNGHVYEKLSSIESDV
The assay can be described thus: Two-electrode voltage-clamp recordings in Xenopus laevis oocytes, GluN2B. To be noted: oocytes, 100 μM glutamate and 30 μM glycine. The protocol:
as §1, §2, §3, §4

Assay [4] concerns the target T4, recombinant rat GluN1/GluN2C (Rattus norvegicus, UniProt P35439+Q00961).
T4 construct: expressed in transfected cells; host or cells: Xenopus laevis oocytes injected with cRNA (GluN1:GluN2 ratio 1:2)
Put plainly: Two-electrode voltage-clamp recordings in Xenopus laevis oocytes, GluN2C. The note with it: oocytes, 100 μM glutamate and 30 μM glycine; read-out: GluN2C IC50. The protocol:
as §1, §2, §3, §4

For assay [5], the target named is T5, recombinant rat GluN1/GluN2D (Rattus norvegicus, UniProt Q62645).
T5 construct: expressed in transfected cells; host or cells: Xenopus laevis oocytes injected with cRNA (GluN1:GluN2 ratio 1:2)
T5 sequence (Q62645 28-1323, other chains not shown): as the sequence (Q62645 28-1323, other chains not shown) above
The assay can be described thus: Two-electrode voltage-clamp recordings in Xenopus laevis oocytes, GluN2D. The protocol: as §1, §2, §3, §4

In assay [6] the target is T6, recombinant rat GluN1/GluN2B (Rattus norvegicus, UniProt P35439+Q00960).
T6 construct: expressed in transfected cells; host or cells: Xenopus laevis oocytes injected with cRNA (GluN1:GluN2 ratio 1:2)
The assay can be described thus: Two-electrode voltage-clamp recordings in Xenopus laevis oocytes, GluN2B. To be noted: oocytes, 100 μM glutamate and 30 μM glycine. The protocol: as §1, §2, §3, §4

Where [7] appears, read: GluN2C and GluN2D receptors, read-out: IC50 values at GluN2C and GluN2D receptors, range over the alcohol compounds.
Where [8] appears, read: oocytes, 100 μM glutamate and 30 μM glycine, read-out: GluN2D IC50.

T4 sequence (Q00961 20-1237, other chains not shown): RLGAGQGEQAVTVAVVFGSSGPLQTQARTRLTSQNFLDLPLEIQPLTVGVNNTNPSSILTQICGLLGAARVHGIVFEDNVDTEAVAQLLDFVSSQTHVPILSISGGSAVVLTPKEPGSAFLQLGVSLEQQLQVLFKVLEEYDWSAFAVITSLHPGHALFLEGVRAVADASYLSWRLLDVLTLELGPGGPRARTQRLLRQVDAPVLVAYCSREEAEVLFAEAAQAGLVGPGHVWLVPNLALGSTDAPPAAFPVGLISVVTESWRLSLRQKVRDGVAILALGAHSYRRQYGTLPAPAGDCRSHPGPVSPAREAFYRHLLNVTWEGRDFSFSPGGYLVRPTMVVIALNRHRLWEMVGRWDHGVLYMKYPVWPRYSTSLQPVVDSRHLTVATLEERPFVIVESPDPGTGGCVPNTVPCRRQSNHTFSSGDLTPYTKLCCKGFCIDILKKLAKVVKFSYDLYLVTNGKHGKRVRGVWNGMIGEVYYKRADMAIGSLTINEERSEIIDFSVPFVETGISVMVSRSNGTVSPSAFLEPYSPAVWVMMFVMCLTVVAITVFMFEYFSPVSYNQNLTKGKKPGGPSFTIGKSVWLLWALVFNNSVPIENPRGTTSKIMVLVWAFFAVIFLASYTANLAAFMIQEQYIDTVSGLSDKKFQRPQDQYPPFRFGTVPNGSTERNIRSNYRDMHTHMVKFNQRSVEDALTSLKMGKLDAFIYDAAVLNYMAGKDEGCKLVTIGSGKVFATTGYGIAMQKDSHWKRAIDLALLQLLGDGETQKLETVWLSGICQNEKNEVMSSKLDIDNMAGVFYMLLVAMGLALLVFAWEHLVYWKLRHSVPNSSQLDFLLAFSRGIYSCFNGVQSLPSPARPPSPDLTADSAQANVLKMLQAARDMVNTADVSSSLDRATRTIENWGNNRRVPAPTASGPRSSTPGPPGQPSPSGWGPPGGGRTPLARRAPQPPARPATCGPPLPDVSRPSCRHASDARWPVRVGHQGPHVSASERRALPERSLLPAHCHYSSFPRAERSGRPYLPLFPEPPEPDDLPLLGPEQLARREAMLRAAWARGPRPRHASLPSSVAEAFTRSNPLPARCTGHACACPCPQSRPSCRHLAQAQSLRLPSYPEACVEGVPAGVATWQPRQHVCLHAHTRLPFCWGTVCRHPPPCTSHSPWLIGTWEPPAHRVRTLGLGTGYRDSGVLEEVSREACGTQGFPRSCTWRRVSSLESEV

Regarding `O=C(CC(F)(F)CO)N1N=C(c2c(-c3ccc(Cl)cc3)c3ccccc3[nH]c2=O)CC1c1ccc(Cl)cc1` (stereo not drawn) [997-67, 4-(4-chlorophenyl)-3-[5-(4-chlorophenyl)-1-(3,3-difluoro-4-hydroxybutanoyl)-4,5-dihydro-1H-pyrazol-3-yl]quinolin-2(1H)-one], the “GluN2A IC50” value in assay [1] was “NE (NE indicates less than 50% inhibition at 30 μM.)”. Further, the 50% inhibitory concentration (IC50) in assay [2] (setting [7]) lay in the range of 0.8 to 2 µM. Moreover, the “GluN2B IC50” value in assay [3] is recorded as “NE (NE indicates less than 50% inhibition at 30 μM.)”.

Regarding `O=C(CC(F)(F)CO)N1N=C(c2c(-c3cccc(F)c3)c3ccccc3[nH]c2=O)CC1c1ccc(Cl)cc1` (stereo not drawn) [997-68, 3-[5-(4-chlorophenyl)-1-(3,3-difluoro-4-hydroxybutanoyl)-4,5-dihydro-1H-pyrazol-3-yl]-4-(3-fluorophenyl)quinolin-2(1H)-one], the values for the IC50 in assay [4], in assay [2] (setting [7]) and in assay [2] (setting [8]) were 4.3 µM, 0.8 to 2 µM and 1.4 µM, respectively. The “GluN2A IC50” value in assay [1] is “NE (NE indicates less than 50% inhibition at 30 μM.)”. The “GluN2B IC50” value in assay [3] is on record as “NE (NE indicates less than 50% inhibition at 30 μM.)”.

On to `O=C(N1N=C(c2c(-c3ccc(Cl)cc3)c3ccccc3[nH]c2=O)CC1c1ccc(Cl)cc1)C(F)(F)CCO` (stereo not drawn) [997-75, 4-(4-chlorophenyl)-3-[5-(4-chlorophenyl)-1-(2,2-difluoro-4-hydroxybutanoyl)-4,5-dihydro-1H-pyrazol-3-yl]quinolin-2(1H)-one], for which the IC50 in assay [4] was 17 µM; in assay [2] (setting [7]), 0.8 to 2 µM; in assay [2] (setting [8]), 2 µM. The “GluN2A IC50” value in assay [1] was “NE (NE indicates less than 50% inhibition at 30 μM.)”. For the same compound, in assay [3], the “GluN2B IC50” value is “NE (NE indicates less than 50% inhibition at 30 μM.)”.

Regarding `O=C(O)CCC(=O)N1N=C(c2c(-c3ccncc3)c3ccccc3[nH]c2=O)CC1c1ccc(Cl)cc1` (stereo not drawn) [997-82, 4-(5-(4-chlorophenyl)-3-(2-oxo-4-(pyridin-4-yl)-1,2-dihydroquinolin-3-yl)-4,5-dihydro-1H-pyrazol-1-yl)-4-oxobutanoic acid], the “GluN2A IC50” value in assay [1] is on record as “NE (NE indicates less than 50% inhibition at 30 μM.)”. In assay [3], the “GluN2B IC50” value is “NE (NE indicates less than 50% inhibition at 30 μM.)”.

As for `Cc1ccc2[nH]c(=O)c(C3=NN(C(=O)CC(F)(F)CO)C(c4ccc(Cl)cc4)C3)c(-c3ccc(Cl)cc3)c2c1` (stereo not drawn) [997-91, 4-(4-chlorophenyl)-3-[5-(4-chlorophenyl)-1-(3,3-difluoro-4-hydroxybutanoyl)-4,5-dihydro-1H-pyrazol-3-yl]-6-methylquinolin-2(1H)-one], the IC50 in assay [4] was 7.1 µM; in assay [2] (setting [8]), 4.4 µM. In addition, the “GluN2A IC50” value in assay [1] was “NE (NE indicates less than 50% inhibition at 30 μM.)”. Further, the “GluN2B IC50” value in assay [3] is “NE (NE indicates less than 50% inhibition at 30 μM.)”.

On to `O=C(O)CC(F)(F)C(=O)N1N=C(c2ccccc2-c2ccc(Cl)cc2)CC1c1ccc(Cl)cc1` (stereo not drawn) [997-95, 4-(3-(4′-chloro-[1,1′-biphenyl]-2-yl)-5-(4-chlorophenyl)-4,5-dihydro-1H-pyrazol-1-yl)-3,3-difluoro-4-oxobutanoic acid], for which the IC50 turned out to be 4.8 µM in assay [4], 6.2 µM in assay [2] (setting [8]) and 6.4 µM in assay [6]. Also, the “2A IC50 / 2D IC50” value in assay [5] (ratio of IC50 values) amounted to 5. The “2B IC50 / 2D IC50” value in assay [5] (ratio of IC50 values) was 1.

Turning to `O=C(O)CC(F)(F)C(=O)N1N=C(c2c(-c3ccc(Cl)cc3)c3ccccc3[nH]c2=S)CC1c1ccc(Cl)cc1` (stereo not drawn) [997-98, 4-(5-(4-chlorophenyl)-3-(4-(4-chlorophenyl)-2-thioxo-1,2-dihydroquinolin-3-yl)-4,5-dihydro-1H-pyrazol-1-yl)-3,3-difluoro-4-oxobutanoic acid], the IC50 in assay [4] came out at 0.44 µM; in assay [2] (read-out: IC50 at GluN2D-containing receptors) it was 0.14 µM. In addition, the “GluN2A IC50” value in assay [1] was “inactive”; in assay [1] (listed as 98) it was “NE (NE indicates less than 50% inhibition at 30 μM.)”. Also, the results for the “GluN2B IC50” value in assay [3] and in assay [3] (listed as 98) were “inactive” and “NE (NE indicates less than 50% inhibition at 30 μM.)”, respectively.

Regarding `O=C(O)CCC(=O)N1N=C(c2ccccc2-c2ccc(Cl)cc2)CC1c1ccc(Cl)cc1` (stereo not drawn) [997-99, 4-(3-(4′-chloro-[1,1′-biphenyl]-2-yl)-5-(4-chlorophenyl)-4,5-dihydro-1H-pyrazol-1-yl)-4-oxobutanoic acid], the IC50 in assay [4] was found to be 16 µM; in assay [2] (setting [8]) it was 12 µM. Moreover, in assay [1], the “GluN2A IC50” value is “NE (NE indicates less than 50% inhibition at 30 μM.)”. Also, the “GluN2B IC50” value in assay [3] is “NE (NE indicates less than 50% inhibition at 30 μM.)”.

On to `O=C(O)CC(F)(F)C(=O)N1N=C(c2c(-c3ccc(F)cc3)c3ccccc3[nH]c2=O)CC1c1ccc(F)cc1` (stereo not drawn) [997-103, 3,3-difluoro-4-(5-(4-fluorophenyl)-3-(4-(4-fluorophenyl)-2-oxo-1,2-dihydroquinolin-3-yl)-4,5-dihydro-1H-pyrazol-1-yl)-4-oxobutanoic acid], for which the IC50 is 7 µM in assay [4] and 3.1 µM in assay [2] (setting [8]). Besides, the “GluN2A IC50” value in assay [1] is on record as “NE (NE indicates less than 50% inhibition at 30 μM.)”. For the same compound, in assay [3], the “GluN2B IC50” value is “NE (NE indicates less than 50% inhibition at 30 μM.)”.

In the case of `O=C(O)CCC(=O)N1N=C(c2c(-c3ccc(F)cc3)c3ccccc3[nH]c2=O)CC1c1ccc(F)cc1` (stereo not drawn) [997-105, 4-(5-(4-fluorophenyl)-3-(4-(4-fluorophenyl)-2-oxo-1,2-dihydroquinolin-3-yl)-4,5-dihydro-1H-pyrazol-1-yl)-4-oxobutanoic acid], the results for the IC50 in assay [4] and in assay [2] (setting [8]) were 6.7 µM and 5.1 µM, respectively. Moreover, the “GluN2A IC50” value in assay [1] is on record as “NE (NE indicates less than 50% inhibition at 30 μM.)”. In addition, in assay [3], the “GluN2B IC50” value is reported as “NE (NE indicates less than 50% inhibition at 30 μM.)”.

As to `NC(=O)C(F)(F)CC(=O)N1N=C(c2c(-c3ccc(Cl)cc3)c3ccccc3[nH]c2=O)CC1c1ccc(Cl)cc1` (stereo not drawn) [997-115, 4-(5-(4-chlorophenyl)-3-(4-(4-chlorophenyl)-2-oxo-1,2-dihydroquinolin-3-yl)-4,5-dihydro-1H-pyrazol-1-yl)-2,2-difluoro-4-oxobutanamide], the IC50 in assay [4] amounted to 1.44 µM; in assay [2] (setting [8]) it was 0.343 µM. In addition, in assay [1], the “GluN2A IC50” value is on record as “NE (NE indicates less than 50% inhibition at 30 μM.)”. In addition, in assay [3], the “GluN2B IC50” value is listed as “NE (NE indicates less than 50% inhibition at 30 μM.)”.

Turning to `O=C(O)CC(F)(F)C(=O)N1N=C(c2ccccc2-c2ccc(F)cc2F)CC1c1ccc(Cl)cc1` (stereo not drawn) [997-121, 4-(5-(4-chlorophenyl)-3-(2′,4′-difluoro-[1,1′-biphenyl]-2-yl)-4,5-dihydro-1H-pyrazol-1-yl)-3,3-difluoro-4-oxobutanoic acid], the values for the IC50 in assay [4] and in assay [2] (setting [8]) were 13.5 µM and 12.3 µM, respectively. In addition, the “GluN2A IC50” value in assay [1] is on record as “NE (NE indicates less than 50% inhibition at 30 μM.)”. In assay [5] (comparator 997-95), the “fold decrease of activity in comparison to 997-95” value was 2 fold. In assay [3], the “GluN2B IC50” value is “NE (NE indicates less than 50% inhibition at 30 μM.)”.
